Measurements published in patent US20140121193A1, “METHODS FOR TREATING FIBROMYALGIA” (priority 2012, published 2014).
Structures can show the parent of a compound that is named as a salt.

What was measured:
Type in all cases: in vivo, human
[1] = system: patients with FMS; experiment: Word naming speed (Stroop Color and Word Test) before and after methylphenidate; details: 10 to 30 mg per day, median 30 days
Description: Abnormalities in naming speed are an unappreciated feature of cognitive dysfunction in fibromyalgia (FMS). Approximately 50% of FMS patients with memory problems name words at a rate that is 203 milliseconds slower than normal. The connection between naming speed and memory loss in FMS is unclear. Stimulant medications like methylphenidate have been known to influence naming speed and could provide clues to the relationship between cognitive functioning and naming speed. The purpose of this experiment was to determine if faster naming speed is connected to positive change in cognitive functioning in patients with fibromyalgia.
(§1) A word naming speed measure (Stroop Color and Word Test) and a measure of cognitive functioning (Mental Clutter Scale, MCS) were administered to 15 patients with FMS, before receiving methylphenidate and post-treatment with methylphenidate. The FMS patients were female, met American College of Rheumatology criteria for FMS, and had memory problems. Methylphenidate dosage was clinically determined and ranged from 10 to 30 mg per day. The median time of methylphenidate usage at re-testing was 30 days. Naming speed was determined by the number of words named in a 45 second time period.
(§2) The mean age of the FMS sample was 46.3±11.6 years with 14.1±2.1 years of education. […] Pre-methylphenidate, the patients read 77.4 words in 45 seconds (581.4 msec/word). Post-methylphenidate, the patients read 93 words in 45 seconds (483.9 msec/word). This represents a 97.5 millisecond benefit from methylphenidate. The normative sample reads 108 words in 45 seconds or 417 msec/word.

[2] = system: patients with FMS; experiment: Mental Clutter Scale (MCS), Cognition and Mental Clarity subscales, before and after methylphenidate; details: 10 to 30 mg per day, median 30 days
Protocol: Three studies involving a sample of over 800 subjects were carried out to determine the structure and stability of a new scale, the Mental Clutter Scale (MCS) (Leavitt & Katz, 2011, “Development of the Mental Clutter Scale,” Psychol. Rep. 109(2): 445-52). An initial pool of 13 items was formulated from self-statements of patients presenting with a history of memory complaints and a review of the literature. Seven items relating to problems with cognitive skills were rated on a 10-point Likert scale from 1=no problem, to 10=severe problem. Six items relating to the frequency of diminished mental clarity were rated on a 10-point Likert scale from 1=not at all, to 10=all the time.
as §1, §2

[3] = system: patients with FMS; experiment: Pain intensity, 10 point visual analogue scale
Protocol: (§3) Fibromyalgia patients were treated with methylphenidate and the effects on concentration, energy, and feelings of well-being were measured. […] Pain intensity was also recorded on a 10 point visual analogue scale, with the endpoint of 1 indicating no pain, and the endpoint of 10 indicating severe pain. The four measures were administered to 48 patients with FMS, before receiving methylphenidate and post methylphenidate treatment. The FMS patients were female and met the new ACR criteria for FMS. Methylphenidate dosage was clinically determined and ranged from 10 to 60 mg per day. The median methylphenidate usage at re-testing was 30 days.
(§4) The mean age of the FMS sample was 48.3±12.3 years. […] The largest change occurred with concentration. However, a significant change in pain intensity with methylphenidate treatment was not observed.

[4] = system: patients with FMS; experiment: Interference from pain on energy, mood and concentration, 10 point visual analogue scale
Protocol: as §3, §4

## COC(=O)C(c1ccccc1)C1CCCCN1 (racemic) [methylphenidate, d,l (racemic)-threo-methyl α-phenyl-2-piperidineacetate hydrochloride]
[1]; pre-methylphenidate 77.4, normative sample 108
  words read in 45 seconds, post-methylphenidate: 93 words in 45 seconds
[1]; pre-methylphenidate 581.4, normative sample 417
  naming time per word, post-methylphenidate: 483.9 msec/word
[1]; pre minus post
  benefit from methylphenidate in naming time per word: 97.5 millisecond
[2]; 15 FMS patients, pre-methylphenidate 48.1 ± 16.5, lower scores represent improved performance, p < 0.01
  Post-methylphenidate score, Mental Clarity subscale of the Mental Clutter Scale: 29.2 ± 13.6
[2]; 15 FMS patients, pre-methylphenidate 52.8 ± 15.6, lower scores represent improved performance, p < 0.01
  Post-methylphenidate score, Cognition subscale of the Mental Clutter Scale: 35.1 ± 11.3
[2]; pre vs post
  improvement with methylphenidate on Cognition (MCS): 17 point
  improvement with methylphenidate on Mental Clarity (MCS): 19 point
[3]; 48 female FMS patients, 10 to 60 mg per day, median 30 days, VAS 1-10, pre-methylphenidate 6.7 ± 1.9, lower scores = improved
  Post-methylphenidate score, Pain intensity: 6.4 ± 2.4
[3]; pre vs post methylphenidate
  significant change in pain intensity with methylphenidate treatment: not observed
[4]; 48 female FMS patients, 10 to 60 mg per day, median 30 days, VAS 1-10, pre-methylphenidate 6.0 ± 2.6, lower scores = improved, p < 0.05
  Post-methylphenidate score, pain interference on Mood: 5.3 ± 2.5
[4]; 48 female FMS patients, 10 to 60 mg per day, median 30 days, VAS 1-10, pre-methylphenidate 6.5 ± 2.3, lower scores = improved
  Post-methylphenidate score, pain interference on Concentration: 5.4 ± 2.4
[4]; 48 female FMS patients, 10 to 60 mg per day, median 30 days, VAS 1-10, pre-methylphenidate 6.6 ± 2.4, lower scores = improved
  Post-methylphenidate score, pain interference on Energy: 5.9 ± 2.2
[4]; pre vs post methylphenidate, p<0.001, largest change
  change in pain interference on concentration, repeated measures ANOVA: significant reduction
[4]; pre vs post methylphenidate, p<0.01
  change in pain interference on energy, repeated measures ANOVA: significant reduction
[4]; pre vs post methylphenidate, p<0.05
  change in pain interference on mood, repeated measures ANOVA: significant reduction
